Results on one molecule are retold here after patent US20170265465A1, “BIORATIONAL TREATMENT PRODUCTS AND METHODS OF USING SAME” (Board of Trustees of Michigan State University, priority 2014, published 2017).

Test [1] concerns creeping bentgrass (Argostis palustris) fairway. Description: Example 2: clippings (biomass) dry weight. The format is in vivo. The protocol:
Objective biomass ratings were also performed based on an increase in dried weight of clippings. Clippings were collected over pre-measured plot areas in each treatment replicate using a Toro® brand walk-behind greens mower Model […] 8000 at the height described in this Example and dried in a drying oven (60° C.) for approximately 48 hours before being weighed. […] Prior to the study, diseases were controlled with as-needed fungicide applications. Fertility was maintained at approximately 0.1 lb.

The subject of test [2] is irrigated putting green. Description: Example 15, 2016 bio-adjuvant/fertility study: visual turfgrass quality rating. It is filed as in vivo. Conditions: scale 1-9 (1 = worst, 9 = best, 7 = acceptable). As to the method: The study was established in four replications of a randomized block design utilizing 2 ft.×21 ft. plots with 6 inch alleys. Treatments were initially applied on Sep. 13, 2016 with the same sprayer and under the same conditions described in Example 1. Turfgrass quality ratings and biomass ratings were performed as described in Example 1. The plots were trimmed on September 19, October 8, and Oct. 24, 2016 and clippings were also collected as described in Example 1.
Treatments were re-applied on Sep. 28, 2016 and Oct. 11, 2016. Turfgrass visual growth and quality ratings were taken periodically, along with turfgrass color ratings as taken with a Spectrum Technologies, Inc. TCM 500 NDVI Color Meter and a Spectrum Technologies, Inc. FieldScout CM 1000 Chlorophyll Meter. The study was irrigated as needed to prevent wilt. No background fertility was applied to the study area. The area was sprayed with 26GT fungicide on Sep. 27, 2016 to control dollar spot disease.

`NC(N)=O` [Urea (46-0-0), urea]: the “Clippings (Biomass) Dry wt (g)” value in test [1] (Sep. 3, 2013, one application, per 1000 ft^2, as far as in the treatment: Urea 0.1 lb. N, Canola Oil Concentrate/Bio-Adjuvant 10 fl. oz., Civitas 8 + Harmonizer 0.5 fl. oz.) worked out at 7.21 f g; in test [1] (Sep. 3, 2013, Urea 0.2 lb. N/1000 ft^2, Canola Oil 10 fl. oz. or Civitas 8 + Harmonizer 0.5 fl. oz. where in the treatment), 7.87 f g; in test [1] (Sep. 3, 2013, Urea 0.3 lb. N/1000 ft^2, Canola Oil Bio-Adjuvant 10 fl. oz. or Civitas 8 + Harmonizer 0.5 fl. oz. where in the treatment) it was 9.77 bcd g. Also, the “Visual Turfgrass Quality, MEAN” value is 7.0 in test [2] (Trt. 4, 0.1 lb N/1000 sq. ft. /14 days, Oct. 1 (3 DAT)); 7.3 in test [2] (Trt. 4, 0.1 lb N/1000 sq. ft. /14 days, Oct. 6 (8 DAT)); 7.3 in test [2] (Trt. 4, 0.1 lb N/1000 sq. ft. /14 days, Sept. 19 (6 DAT)); 7.0 in test [2] (Trt. 5, 0.05 lb N/1000 sq. ft. /14 days, Oct. 1 (3 DAT)); 6.8 in test [2] (Trt. 5, 0.05 lb N/1000 sq. ft. /14 days, Oct. 6 (8 DAT)); 6.8 in test [2] (Trt. 5, 0.05 lb N/1000 sq. ft. /14 days, Sept. 19 (6 DAT)).
